# Laboratory results published in the supplement of paper PMC11061612.
# Legend:
# [1] = system: COR-L105 (Lung Adenocarcinoma); experiment: combination Emax (second highest fraction inhibited in the dose matrix, 72 h); higher = more inhibition; extreme values may be limits of the assay
# In short: (§1)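 Cell lines in DMEM/F12 or RPMI with 10% FBS were plated in 1536-well plates, held 24 hours at 37°C, 5% CO2, then given two-drug dose matrices for 72 hours (DMSO typically 0.2%). Viability was read by CellTiter-Glo 2.0 luminescence and scaled as inhibition from 0 (vehicle wells) to 1 (blank wells). Combination Emax is the second-highest inhibition in the matrix; Bliss excess is observed combination effect minus expected EA + EB − EA·EB, EA and EB being single-agent effects.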
# [2] = system: KNS-62 (Squamous Cell Lung Carcinoma); experiment: as above
# In short: as §1
# [3] = system: MRK-nu-1 (Breast Carcinoma); experiment: as above
# In short: as §1
# [4] = system: L-363 (Plasma Cell Myeloma); experiment: Bliss excess, mean over the matrix (fraction); higher = more synergy
# In short: as §1
# MG-63 (Osteosarcoma) = experiment: as above
# In short: as §1
# [5] = system: MDA-MB-175-VII (Breast Carcinoma); experiment: as above
# In short: as §1
# [6] = system: NCI-H1648 (Lung Adenocarcinoma); experiment: as above
# In short: as §1
# [7] = system: GRANTA-519 (B-Cell Non-Hodgkin's Lymphoma); experiment: combination Emax (second highest fraction inhibited in the dose matrix, 72 h); higher = more inhibition; extreme values may be limits of the assay
# In short: as §1
# [8] = system: NCI-H1975 (Lung Adenocarcinoma); experiment: as above
# In short: as §1
# [9] = system: BT-474 (Breast Carcinoma); experiment: as above
# In short: as §1
# [10] = system: HT-3 (Cervical Carcinoma); experiment: as above
# In short: as §1
# [11] = system: RS4-11 (B-Lymphoblastic Leukemia); experiment: as above
# In short: as §1
# [12] = system: SUP-HD1 (Hodgkin's Lymphoma); experiment: as above
# In short: as §1
# [13] = system: GRANTA-519 (B-Cell Non-Hodgkin's Lymphoma); experiment: Bliss excess, mean over the matrix (fraction); higher = more synergy
# In short: as §1
# [14] = system: Daudi (Burkitt's Lymphoma); experiment: as above
# In short: as §1
# [15] = system: TK (B-Cell Non-Hodgkin's Lymphoma); experiment: as above
# In short: as §1
# [16] = system: NCI-H2170 (Squamous Cell Lung Carcinoma); experiment: as above
# In short: as §1
# [17] = system: JJN-3 (Plasma Cell Myeloma); experiment: as above
# In short: as §1
# [18] = system: SUP-HD1 (Hodgkin's Lymphoma); experiment: as above
# In short: as §1
# [19] = system: JJN-3 (Plasma Cell Myeloma); experiment: combination Emax (second highest fraction inhibited in the dose matrix, 72 h); higher = more inhibition; extreme values may be limits of the assay
# In short: as §1
# 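For Bliss excess, mean over the matrix in this document: after 72 h of two-drug dosing.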
Compound,combination Emax [1],combination Emax [2],combination Emax [3],Bliss excess [4],Bliss excess (MG-63 (Osteosarcoma)),Bliss excess [5],Bliss excess [6],combination Emax [7],combination Emax [8],combination Emax [9],combination Emax [10],combination Emax [11],combination Emax [12],Bliss excess [13],Bliss excess [14],Bliss excess [15],Bliss excess [16],Bliss excess [17],Bliss excess [18],combination Emax [19]
"N#Cc1cnc(Nc2cc(NC[C@H]3CNCCO3)c(C(F)(F)F)cn2)cn1 [SRA737] + Nc1ccn([C@@H]2O[C@H](CO)[C@@H](O)C2(F)F)c(=O)n1 [Gemcitabine] (first compound max 10 µM, 7x7, partner max 0.3 µM)",0.485,0.608,0.748,0.123,0.124,-0.0041,0.0912,–,–,–,–,–,–,–,–,–,–,–,–,–
"C=CCn1c(=O)c2cnc(Nc3ccc(N4CCN(C)CC4)cc3)nc2n1-c1cccc(C(C)(C)O)n1 [AZD1775] + C1CN(CCC1(C(=O)N[C@@H](CCO)C2=CC=C(C=C2)Cl)N)C3=NC=NC4=C3C=CN4 [Capivasertib] (first compound max 3 µM, partner max 3 µM)",0.584,0.719,0.721,-0.0379,-0.0484,0.0171,-0.0257,0.865,0.714,0.47,0.736,0.939,0.736,-0.0163,0.0313,0.0183,-0.0454,-0.0417,-0.0378,–
"COc1cc2c(cc1OCCCCCOc1cc3c(cc1OC)C(=O)N1C=C(C)C[C@H]1C=N3)N=C[C@@H]1CC(C)=CN1C2=O [SG3199] + O=C(c1cc(Cc2n[nH]c(=O)c3ccccc23)ccc1F)N1CCN(C(=O)C2CC2)CC1 [Olaparib] (first compound max 0.001 µM, 7x7, partner max 10 µM)",0.0843,0.0885,0.223,-0.0123,-0.0041,-0.0489,-0.0282,0.324,0.172,0.049,0.0808,0.591,0.456,-0.0226,-0.0273,-0.0114,-0.009,0.0128,0.1,0.254
"CN(CCO)CC[C@H](CSc1ccccc1)Nc1ccc(S(=O)(=O)NC(=O)c2ccc(N3CCC([C@@H](O)c4ccccc4-c4ccc(Cl)cc4)CC3)cc2)cc1S(=O)(=O)C(F)(F)F [AZD4320] + C[C@@H](Nc1cc(F)cc(F)c1)c1cc(C(=O)N(C)C)cc2c(=O)cc(N3CCOCC3)oc12 [AZD8186] (first compound max 1 µM, 7x7, partner max 3 µM)",0.387,0.382,0.589,0.0753,-0.0149,0.0271,0.0323,1,0.421,0.428,0.237,1,0.96,0.0128,0.0555,0.0312,0.0284,0.0409,0.0322,0.497
"Cc1cc2ncnn2cc1Nc1ncc2c(n1)n(C1CCOCC1)c(=O)n2C [AZD7648] + O=C(c1cc(Cc2n[nH]c(=O)c3ccccc23)ccc1F)N1CCN(C(=O)C2CC2)CC1 [Olaparib] (first compound max 10 µM, 7x7, partner max 10 µM)",0.222,0.149,0.387,0.0266,0.0014,-0.0525,-0.0549,0.251,0.389,0.117,0.0499,0.484,0.465,-0.0416,-0.0336,0.0001,-0.0052,-0.008,0.0862,0.256
"N#Cc1cnc(Nc2cc(NC[C@H]3CNCCO3)c(C(F)(F)F)cn2)cn1 [SRA737] + CCc1c2c(nc3ccc(O)cc13)-c1cc3c(c(=O)n1C2)COC(=O)[C@]3(O)CC [SN-38] (first compound max 10 µM, 7x7, partner max 0.3 µM)",0.38,0.866,0.763,0.0599,-0.0251,-0.0418,–,–,–,–,–,–,–,–,–,–,–,–,–,–
"N#Cc1cnc(Nc2cc(NC[C@H]3CNCCO3)c(C(F)(F)F)cn2)cn1 [SRA737] + O=c1[nH]cc(F)c(=O)[nH]1 [5-Fluorouracil] (first compound max 10 µM, 7x7, partner max 20 µM)",0.234,0.382,0.443,0.0691,0.0106,-0.0189,-0.0515,–,–,–,–,–,–,–,–,–,–,–,–,–
"CN(CCO)CC[C@H](CSc1ccccc1)Nc1ccc(S(=O)(=O)NC(=O)c2ccc(N3CCC([C@@H](O)c4ccccc4-c4ccc(Cl)cc4)CC3)cc2)cc1S(=O)(=O)C(F)(F)F [AZD4320] + Cc1cc2ncnn2cc1Nc1ncc2c(n1)n(C1CCOCC1)c(=O)n2C [AZD7648] (first compound max 1 µM, 7x7, partner max 10 µM)",0.253,0.108,0.697,0.0181,-0.0463,-0.0145,-0.0264,0.829,0.35,0.154,0.0567,1,0.939,0.0049,-0.0115,-0.0018,-0.006,0.0461,0.0039,0.473
"Cc1cc2ncnn2cc1Nc1ncc2c(n1)n(C1CCOCC1)c(=O)n2C [AZD7648] + COc1cc([C@@H]2c3cc4c(cc3[C@@H](O[C@@H]3O[C@@H]5CO[C@@H](C)O[C@H]5[C@H](O)[C@H]3O)[C@H]3COC(=O)[C@H]23)OCO4)cc(OC)c1O [Etoposide] (first compound max 10 µM, 7x7, partner max 10 µM)",0.338,0.456,0.726,0.0582,0.0878,0.0478,-0.0577,–,–,–,–,–,–,–,–,–,–,–,–,–
"Cc1cc2ncnn2cc1Nc1ncc2c(n1)n(C1CCOCC1)c(=O)n2C [AZD7648] + CN(C)CCCOc1ccc(-c2ccc3ncc4c(c3c2)n(C2CCOCC2)c(=O)n4C)cn1 [AZD0156] (first compound max 10 µM, 7x7, partner max 1 µM)",0.339,0.235,0.515,0.0303,0.0397,-0.0453,0.0176,0.249,0.398,0.234,0.143,0.246,0.199,0.0266,0.0327,-0.0264,0.009,-0.0058,-0.0306,0.17
"CN(CCO)CC[C@H](CSc1ccccc1)Nc1ccc(S(=O)(=O)NC(=O)c2ccc(N3CCC([C@@H](O)c4ccccc4-c4ccc(Cl)cc4)CC3)cc2)cc1S(=O)(=O)C(F)(F)F [AZD4320] + C[C@@H]1COCCN1C2=NC(=NC(=C2)C3(CC3)[S@](=N)(=O)C)C4=C5C=CNC5=NC=C4 [AZD6738] (first compound max 1 µM, 7x7, partner max 10 µM)",0.54,0.581,0.819,-0.007,-0.0762,-0.0429,-0.0523,0.999,0.481,0.259,0.764,1,0.98,-0.0075,-0.0403,0.0338,-0.0478,0.0041,-0.0207,0.797
"CN(CCO)CC[C@H](CSc1ccccc1)Nc1ccc(S(=O)(=O)NC(=O)c2ccc(N3CCC([C@@H](O)c4ccccc4-c4ccc(Cl)cc4)CC3)cc2)cc1S(=O)(=O)C(F)(F)F [AZD4320] + CC(=O)O[C@H]1C(=O)[C@@]2(C)[C@H]([C@H](OC(=O)c3ccccc3)[C@]3(O)C[C@H](OC(=O)[C@H](O)[C@@H](NC(=O)c4ccccc4)c4ccccc4)C(C)=C1C3(C)C)[C@]1(OC(C)=O)CO[C@@H]1C[C@@H]2O [Paclitaxel] (first compound max 1 µM, 7x7, partner max 3 µM)",0.695,0.957,1,-0.0131,0.0471,0.107,-0.0009,–,–,–,–,–,–,–,–,–,–,–,–,–
"CN(CCO)CC[C@H](CSc1ccccc1)Nc1ccc(S(=O)(=O)NC(=O)c2ccc(N3CCC([C@@H](O)c4ccccc4-c4ccc(Cl)cc4)CC3)cc2)cc1S(=O)(=O)C(F)(F)F [AZD4320] + Nc1ccn([C@@H]2O[C@H](CO)[C@@H](O)C2(F)F)c(=O)n1 [Gemcitabine] (first compound max 1 µM, 7x7, partner max 0.3 µM)",0.514,0.595,0.892,0.0563,0.0293,0.125,-0.0274,–,–,–,–,–,–,–,–,–,–,–,–,–
"N#Cc1cnc(Nc2cc(NC[C@H]3CNCCO3)c(C(F)(F)F)cn2)cn1 [SRA737] + C=CCn1c(=O)c2cnc(Nc3ccc(N4CCN(C)CC4)cc3)nc2n1-c1cccc(C(C)(C)O)n1 [AZD1775] (first compound max 10 µM, partner max 1 µM)",0.383,0.53,0.724,0.121,0.0974,-0.0073,-0.0116,–,–,–,–,–,–,–,–,–,–,–,–,–
"C[C@@H](c1ccc2nccn2c1)n1nnc2ncc(-c3cnn(C)c3)nc21 [Savolitinib] + CN(CC[C@H](CSC1=CC=CC=C1)NC2=C(C=C(C=C2)S(=O)(=O)NC(=O)C3=CC=C(C=C3)N4CCC(CC4)[C@H](C5=CC=CC=C5C6=CC=C(C=C6)Cl)O)S(=O)(=O)C(F)(F)F)CCO [AZD4320] (first compound max 1 µM, 7x7, partner max 1 µM)",–,–,–,–,–,–,–,0.898,0.178,0.262,0.15,1,0.941,-0.044,-0.0219,-0.08,-0.0589,-0.0374,0.0355,0.357
